Experimental findings from patent US11242334B2, “Heterocyclic compounds as kinase inhibitors, compositions comprising the heterocyclic compound, and methods of use thereof” (JS INNOPHARM (SHANGHAI) LTD, priority 2017, dated 2022) are described below.

Experiment [1] has as its system Colo205 cell line. Kind of experiment: Colo205 cell proliferation assay (MTT assay, WST-8 readout). To be noted: Homo sapiens; IC50 values of growth inhibition in Colo 205 cells; 72 hours. It counts as cell-based. The essentials: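 Colo205 cells were seeded at 5,000 cells/well in RPMI-1640 with 10% FBS and attached for 24 h at 37° C. They were then exposed for 72 h to compound at final 50 μM to 0.005 μM (0.5% DMSO). Viability was read as WST-8 absorbance at 450 nm after 2 h, and IC50 of growth inhibition was determined.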
In general terms: Formazan colour is commonly taken as a measure of viable cells.

The target in experiment [2] is T1, human ERK2 (Homo sapiens, UniProt P28482).
T1 construct: recombinantly expressed as GST-tagged full-length protein purified from E. coli; GST; purchased Invitrogen PV3311; host or cells: E. coli
T1 sequence (P28482 whole entry): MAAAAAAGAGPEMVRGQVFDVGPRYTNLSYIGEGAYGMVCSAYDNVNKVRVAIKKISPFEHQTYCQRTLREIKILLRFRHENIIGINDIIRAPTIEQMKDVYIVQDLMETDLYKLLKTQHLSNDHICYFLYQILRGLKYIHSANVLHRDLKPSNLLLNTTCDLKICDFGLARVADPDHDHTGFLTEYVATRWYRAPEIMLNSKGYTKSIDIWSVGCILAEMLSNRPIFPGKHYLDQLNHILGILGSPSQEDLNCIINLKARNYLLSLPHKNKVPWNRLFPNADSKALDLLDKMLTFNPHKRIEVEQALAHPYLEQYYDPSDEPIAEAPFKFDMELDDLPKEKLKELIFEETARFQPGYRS
Kind of experiment: LanthaScreen TR-FRET enzymatic assay, ERK2. The note with it: IC50 values of ERK2 biochemical activity; 5 μM ATP, 400 nM ATF2-GFP substrate. The essentials:
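GST-tagged full-length ERK2 from E. coli, activated with MAP2K1, was used at 20 ng/ml with 400 nM GFP-ATF2(19-96) and 5 μM ATP (near Km). Compound was pre-incubated 15 min, and the reaction ran 1 h at room temperature. pThr71 was detected by Tb-antibody TR-FRET ratio, with IC50 from sigmoid fitting against 1% DMSO.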

Broadly, the IC50 is the point on the concentration scale where inhibition reaches its midpoint. A lower IC50 goes with greater potency. Take `Cc1cc(-c2n[nH]c3ccc(-c4ccn(Cc5ccnc(C(F)(F)F)c5)c(=O)c4)nc23)ccn1` [Example 112, 4-(3-(2-methylpyridin-4-yl)-1H-pyrazolo[4,3-b]pyridin-5-yl)-1-((2-(trifluoromethyl)pyridin-4-yl)methyl)pyridin-2(1H)-one]: the IC50 is 1000 to 5000 nM in experiment [1] and below 10 nM in experiment [2].

As to `Cc1cc(-c2n[nH]c3ccc(-c4ccn([C@H](CO)c5ccc(Cl)c(F)c5)c(=O)c4)cc23)ccn1` [Example 15, (S)-1-(1-(4-chloro-3-fluorophenyl)-2-hydroxyethyl)-4-(3-(2-methylpyridin-4-yl)-1H-indazol-5-yl)pyridin-2(1H)-one], the figures for the IC50 in experiment [1] and in experiment [2] were at most 500 nM and below 10 nM, respectively.

Turning to `CC(C)Oc1ccc(-c2n[nH]c3ccc(-c4ccn([C@H](CO)c5cc(F)cc(Br)c5)c(=O)c4)cc23)cn1` [Example 40, (S)-1-(1-(3-bromo-5-fluorophenyl)-2-hydroxyethyl)-4-(3-(6-isopropoxypyridin-3-yl)-1H-indazol-5-yl)pyridin-2(1H)-one], the IC50 in experiment [1] was at most 500 nM; in experiment [2], below 10 nM.

As to `O=c1cc(-c2ccc3[nH]nc([C@H]4CC[C@@H](O)CC4)c3c2)ccn1Cc1ccnc(C(F)(F)F)c1` [Example 149, 4-(3-((1s,4s)-4-hydroxycyclohexyl)-1H-indazol-5-yl)-1-((2-(trifluoromethyl)pyridin-4-yl)methyl)pyridin-2(1H)-one], the IC50 in experiment [1] was above 5000 nM; in experiment [2], 10 to 50 nM.

As for `Cc1cc(-c2n[nH]c3ncc(-c4ccn(C(C)c5cc(F)cc(Br)c5)c(=O)c4)cc23)ccn1` (stereo not drawn) [Example 105, 1-(1-(3-bromo-5-fluorophenyl)ethyl)-4-(3-(2-methylpyridin-4-yl)-1H-pyrazolo[3,4-b]pyridin-5-yl)pyridin-2(1H)-one], the IC50 was 500 to 1000 nM in experiment [1] and below 10 nM in experiment [2].

Regarding `CC(C)Oc1ccc(-c2n[nH]c3ccc(-c4ccn([C@H](CO)c5cccc(Br)c5)c(=O)c4)cc23)cn1` [Example 44, (S)-1-(1-(3-bromophenyl)-2-hydroxyethyl)-4-(3-(6-isopropoxypyridin-3-yl)-1H-indazol-5-yl)pyridin-2(1H)-one], the IC50 in experiment [1] is 500 to 1000 nM; in experiment [2], below 10 nM.

For `CNCC(c1cccc(Cl)c1)n1ccc(-c2ccc3[nH]nc(-c4cnn(C)c4)c3c2)cc1=O` (stereo not drawn) [Example 98, 1-(1-(3-chlorophenyl)-2-(methylamino)ethyl)-4-(3-(1-methyl-1H-pyrazol-4-yl)-1H-indazol-5-yl)pyridin-2(1H)-one], the IC50 is at most 500 nM in experiment [1] and below 10 nM in experiment [2].

With `Cc1cc(-c2n[nH]c3ccc(-c4ccn([C@H](CO)c5cccc(Cl)c5)c(=O)c4)cc23)ccn1` [Example 1, (S)-1-(1-(3-chlorophenyl)-2-hydroxyethyl)-4-(3-(2-methyl-pyridin-4-yl)-1H-indazol-5-yl)pyridin-2(1H)-one], the results for the IC50 in experiment [1] and in experiment [2] were at most 500 nM and below 10 nM, respectively.

`Cc1cc(-c2n[nH]c3ncc(-c4ccn([C@H](CO)c5ccc(Cl)c(F)c5)c(=O)c4)cc23)ccn1` [Example 24, (S)-1-(1-(4-chloro-3-fluorophenyl)-2-hydroxyethyl)-4-(3-(2-methylpyridin-4-yl)-1H-pyrazolo[3,4-b]pyridin-5-yl)pyridin-2(1H)-one]: the IC50 lay within 1000 to 5000 nM in experiment [1] and 50 to 100 nM in experiment [2].

With `Cn1cc(-c2n[nH]c3ccc(-c4ccn([C@H](CO)c5cccc(I)c5)c(=O)c4)cc23)cn1` [Example 47, (S)-1-(2-hydroxy-1-(3-iodophenyl)ethyl)-4-(3-(1-methyl-1H-pyrazol-4-yl)-1H-indazol-5-yl)pyridin-2(1H)-one], the IC50 in experiment [1] was at most 500 nM; in experiment [2], below 10 nM.

As for `CC(C)Oc1ccc(-c2n[nH]c3ccc(-c4ccn(Cc5cc(F)cc(Br)c5)c(=O)c4)cc23)cn1` [Example 99, 1-(3-bromo-5-fluorobenzyl)-4-(3-(6-isopropoxypyridin-3-yl)-1H-indazol-5-yl)pyridin-2(1H)-one], the IC50 in experiment [1] is 1000 to 5000 nM; in experiment [2] it was below 10 nM.

In the case of `Cc1cc(-c2n[nH]c3ccc(-c4ccn(Cc5ccc(F)c(OC(F)(F)F)c5)c(=O)c4)cc23)ccn1` [Example 78, 1-(4-fluoro-3-(trifluoromethoxy)benzyl)-4-(3-(2-methylpyridin-4-yl)-1H-indazol-5-yl)pyridin-2(1H)-one], the results for the IC50 in experiment [1] and in experiment [2] were 1000 to 5000 nM and 10 to 50 nM, respectively.
